Data taken from ChEMBL document CHEMBL4041490, “Discovery of nanomolar ligands with novel scaffolds for the histamine H4 receptor by virtual screening” (Eur J Med Chem, 2017).

Experiments:
Histamine H4 receptor [1] = target: T1, Histamine H4 receptor (Homo sapiens, UniProt Q9H3N8); test: Antagonist activity at human H4 receptor expressed in CHO cells co-expressing Galphai2 assessed as inhibition of imetit-induced GTPgamma[35S] binding at 1 uM after 30 mins by microbeta scintillation counting method relative to control; type: cell-based
T1 sequence (Q9H3N8 whole entry): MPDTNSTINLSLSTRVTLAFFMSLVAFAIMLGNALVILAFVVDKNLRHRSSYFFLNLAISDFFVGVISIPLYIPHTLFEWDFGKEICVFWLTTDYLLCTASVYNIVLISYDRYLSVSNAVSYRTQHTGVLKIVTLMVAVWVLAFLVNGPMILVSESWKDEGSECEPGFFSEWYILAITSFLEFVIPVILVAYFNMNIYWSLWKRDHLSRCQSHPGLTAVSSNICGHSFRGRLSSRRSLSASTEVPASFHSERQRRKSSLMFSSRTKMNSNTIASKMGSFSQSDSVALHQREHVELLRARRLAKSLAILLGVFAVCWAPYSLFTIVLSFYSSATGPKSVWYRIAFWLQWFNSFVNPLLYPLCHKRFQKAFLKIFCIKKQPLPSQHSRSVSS

Histamine H4 receptor [2] = target: T1, Histamine H4 receptor; test: Antagonist activity at human H4 receptor expressed in CHO cells co-expressing Galphai2 assessed as inhibition of imetit-induced GTPgamma[35S] binding after 30 mins by microbeta scintillation counting method; type: cell-based
[3] = target: Voltage-gated inwardly rectifying potassium channel KCNH2 (Homo sapiens, UniProt Q12809); test: Inhibition of human ERG
Voltage-gated inwardly rectifying potassium channel KCNH2, sequence (Q12809 whole entry): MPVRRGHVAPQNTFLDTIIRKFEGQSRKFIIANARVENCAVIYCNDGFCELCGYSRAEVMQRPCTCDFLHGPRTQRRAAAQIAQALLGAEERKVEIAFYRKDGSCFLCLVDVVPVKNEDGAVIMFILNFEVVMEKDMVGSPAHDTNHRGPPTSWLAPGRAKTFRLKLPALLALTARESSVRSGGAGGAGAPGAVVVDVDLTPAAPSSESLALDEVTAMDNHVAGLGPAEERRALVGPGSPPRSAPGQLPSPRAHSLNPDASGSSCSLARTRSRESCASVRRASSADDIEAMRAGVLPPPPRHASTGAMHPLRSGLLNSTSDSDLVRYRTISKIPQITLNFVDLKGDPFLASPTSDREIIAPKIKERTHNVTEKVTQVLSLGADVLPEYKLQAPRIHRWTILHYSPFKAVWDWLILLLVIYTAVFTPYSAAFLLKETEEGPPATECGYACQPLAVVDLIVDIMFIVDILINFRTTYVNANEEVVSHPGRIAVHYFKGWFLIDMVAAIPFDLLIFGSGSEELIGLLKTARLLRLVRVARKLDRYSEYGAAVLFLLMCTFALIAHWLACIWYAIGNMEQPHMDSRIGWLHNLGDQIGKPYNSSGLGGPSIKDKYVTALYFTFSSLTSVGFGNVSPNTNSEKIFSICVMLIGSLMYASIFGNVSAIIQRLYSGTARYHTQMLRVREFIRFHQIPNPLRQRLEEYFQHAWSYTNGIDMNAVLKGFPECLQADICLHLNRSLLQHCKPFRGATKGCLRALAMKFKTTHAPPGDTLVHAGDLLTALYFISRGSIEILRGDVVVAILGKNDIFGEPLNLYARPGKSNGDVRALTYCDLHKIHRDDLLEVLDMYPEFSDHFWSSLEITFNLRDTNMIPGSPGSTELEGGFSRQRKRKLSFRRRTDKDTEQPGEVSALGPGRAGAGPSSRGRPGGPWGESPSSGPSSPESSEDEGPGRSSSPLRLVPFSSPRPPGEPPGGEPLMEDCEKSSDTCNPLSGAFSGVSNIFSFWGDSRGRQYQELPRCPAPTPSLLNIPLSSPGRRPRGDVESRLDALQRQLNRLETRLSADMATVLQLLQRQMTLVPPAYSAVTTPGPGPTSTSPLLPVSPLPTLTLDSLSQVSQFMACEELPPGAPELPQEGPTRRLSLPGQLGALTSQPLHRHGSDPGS

Histamine H4 receptor [4] = target: T1, Histamine H4 receptor; test: Agonist activity at human H4 receptor expressed in CHO cell membranes co-expressing Galphai2 at 1 uM by GTPgamma[35S] binding assay
Histamine H4 receptor [5] = target: T1, Histamine H4 receptor; test: Agonist activity at human H4 receptor expressed in CHO cell membranes co-expressing Galphai2 by GTPgamma[35S] binding assay
Histamine H4 receptor [6] = target: T1, Histamine H4 receptor; test: Antagonist activity at H4 receptor in human SH-SY5Y cells assessed as inhibition of imetit-induced GTPgamma[35S] binding at 1 uM after 30 mins by microbeta scintillation counting method relative to control; type: cell-based
Histamine H4 receptor [7] = target: T1, Histamine H4 receptor; test: Antagonist activity at H4 receptor in human SH-SY5Y cells assessed as inhibition of imetit-induced GTPgamma[35S] binding after 30 mins by microbeta scintillation counting method; type: cell-based
Histamine H3 receptor = Histamine H3 receptor (Homo sapiens, UniProt Q9Y5N1); test: Antagonist activity at H3 receptor (unknown origin)
Histamine H3 receptor, sequence (Q9Y5N1 whole entry): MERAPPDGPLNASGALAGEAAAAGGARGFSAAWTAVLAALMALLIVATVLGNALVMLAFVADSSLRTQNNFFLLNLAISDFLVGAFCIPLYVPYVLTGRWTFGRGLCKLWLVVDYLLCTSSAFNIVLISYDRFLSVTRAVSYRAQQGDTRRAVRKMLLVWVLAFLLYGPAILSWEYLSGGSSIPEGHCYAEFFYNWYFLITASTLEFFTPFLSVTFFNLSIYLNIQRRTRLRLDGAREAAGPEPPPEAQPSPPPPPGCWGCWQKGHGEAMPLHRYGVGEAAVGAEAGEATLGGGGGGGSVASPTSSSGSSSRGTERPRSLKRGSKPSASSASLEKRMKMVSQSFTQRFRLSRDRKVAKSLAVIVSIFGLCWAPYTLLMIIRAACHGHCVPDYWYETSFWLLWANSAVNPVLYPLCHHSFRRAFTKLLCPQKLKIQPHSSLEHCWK

D(3) dopamine receptor = D(3) dopamine receptor (Homo sapiens, UniProt P35462); test: Antagonist activity at D3 receptor (unknown origin)
D(3) dopamine receptor, sequence (P35462 whole entry): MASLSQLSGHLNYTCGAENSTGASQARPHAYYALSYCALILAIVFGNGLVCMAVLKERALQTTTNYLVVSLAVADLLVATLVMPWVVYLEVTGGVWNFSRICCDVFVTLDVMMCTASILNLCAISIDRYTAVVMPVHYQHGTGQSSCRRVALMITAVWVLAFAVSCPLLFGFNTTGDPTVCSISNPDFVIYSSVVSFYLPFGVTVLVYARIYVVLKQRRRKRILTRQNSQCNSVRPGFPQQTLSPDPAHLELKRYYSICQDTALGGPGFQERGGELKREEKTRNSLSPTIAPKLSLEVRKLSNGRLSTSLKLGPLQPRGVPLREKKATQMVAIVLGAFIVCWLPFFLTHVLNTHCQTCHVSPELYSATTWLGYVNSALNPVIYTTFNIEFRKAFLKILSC

Histamine H4 receptor [8] = target: T1, Histamine H4 receptor; test: Antagonist activity at H4 receptor (unknown origin)
Histamine H4 receptor [9] = target: T1, Histamine H4 receptor; test: Antagonist activity at human H4 receptor assessed as inhibition of imetit-induced GTPgamma[35S] binding after 30 mins by microbeta scintillation counting method

Structure (SMILES)	inhibition (Histamine H4 receptor [1]) [%]	Ki (Histamine H4 receptor [2]) [µM]	inhibition (Histamine H4 receptor [6]) [%]	Ki (Histamine H4 receptor [7]) [nM]	Ki (Histamine H3 receptor) [nM]	further results
Clc1cccc(N2CCN(CCCCNc3ccc4ccccc4n3)CC2)c1Cl	> 20	0.125				Ki [3]: 10 nM
COc1ccc(/C(=N/[C@H](C)Cc2cnc[nH]2)c2ccccc2)c(O)c1						Activity (Histamine H4 receptor [4]): > 20%; EC50 (Histamine H4 receptor [5]): 6.75 µM
CC(=O)SCC(Cc1ccc2c(c1)OCO2)C(=O)NCC(=O)OCc1ccccc1 (configuration not stated)	> 20	0.214				
O=C(Nc1cccc2ccccc12)N1CCC(c2c[nH]cn2)CC1	> 20	1.09				
O=[N+]([O-])c1cccc(C(OCCCc2c[nH]cn2)c2ccccc2)c1 (configuration not stated)			> 20	2.7	9.6	
O=C(CCCc1ccc(I)cc1)OCCCc1c[nH]cn1	> 20					
O=C(c1ccccc1)c1ccc(OCCCCCN2CCCC2)cc1	> 20	13				
COc1cc2c(cc1OC)C(C)=C(C(=O)NCCCCN1CCN(c3ccccc3F)CC1)C2	> 20	3.8				Ki (D(3) dopamine receptor): 0.5 nM
c1ccc(C(OCCCc2c[nH]cn2)c2ccccc2)cc1			> 20	25	24	Ki [3]: 500 nM
O=C(/C=C/c1ccccc1)c1ccc(OCCCc2c[nH]cn2)cc1			> 20	11	8.3	
COc1ccc2c(c1)c(CC(=O)NCCCn1ccnc1)c(C)n2C(=O)c1ccc(Cl)cc1	> 20	4.2				
CCOC(=O)CN1Cc2ccccc2C[C@@H](NC(=O)C(Cc2ccccc2)C(=O)NO)C1=O (some centres not stated)	> 20	3.02				
O=C(NC(c1ccc(Cl)cc1)c1ccc(Cl)cc1)OCCCc1c[nH]cn1			> 20	14.5	258	
COc1ccccc1N1CCN(CCCCNc2nccc3ccccc23)CC1			> 20	51		
FC(F)(F)c1cccc(N2CCN(CCCCNc3nccc4ccccc34)CC2)c1			> 20	5.4		
Brc1ccc(C(OCCCc2c[nH]cn2)c2ccc3ccccc3c2)cc1 (configuration not stated)			> 20	4	47	

Structure (SMILES)	inhibition (Histamine H4 receptor [1]) [%]	Ki (Histamine H4 receptor [2]) [µM]	inhibition (Histamine H4 receptor [6]) [%]	Ki (Histamine H4 receptor [7]) [nM]	Ki (Histamine H3 receptor) [nM]	further results
CC(=O)c1ccc(OCc2ccc(CN3CCCC(C)C3)cc2)cc1 (configuration not stated)	> 20	16.4			22	
Ic1ccc(C(OCCCc2c[nH]cn2)c2ccccc2)cc1 (configuration not stated)			> 20	3	14	
Clc1cccc(N2CCN(CCCCNc3nccc4ccccc34)CC2)c1Cl			> 20	5.2		Ki [3]: 30 nM
O=c1[nH]c2ccccc2n1C1CCN(CCCC(c2ccc(F)cc2)c2ccc(F)cc2)CC1 [PIMOZIDE]						Ki (Histamine H4 receptor [8]): 2000 nM
O=C(NCCCCN1CCN(c2cccc(Cl)c2Cl)CC1)c1cncc(Br)c1						Ki (D(3) dopamine receptor): 2.8 nM; Ki (Histamine H4 receptor [9]): 3.1 µM
O=C(CCNC(=O)C(Cc1ccccc1)Cn1ccnc1)OCc1ccccc1 (configuration not stated)			> 20	174		
O=C(O)C(Cc1cccc2ccccc12)NC(=O)[C@@H](CS)Cc1ccccc1 (some centres not stated)			> 20	62		
O=C(NCCCCN1Cc2cccc3cccc(c23)C1)c1ccc2ccccc2c1			> 20	400		
c1ccc(-c2ccc(CCCOCCCc3c[nH]cn3)cc2)cc1			> 20	27	118	
Nc1ccc(NCCc2ccc(OCCCN3CCCCC3)cc2)nc1	> 20	30			4.8	
c1ccc(C(OCCCc2c[nH]cn2)(c2ccccc2)c2ccccc2)cc1	> 20					
c1ccc(C(OCCCc2cnc[nH]2)(c2ccccc2)c2ccccc2)cc1		0.24			> 1000	
O=C(CCCc1ccc(I)cc1)OCCCc1cnc[nH]1		0.118			41	
COc1ccc2c(c1)c(CC(=O)NCCCO)c(C)n2C(=O)c1ccc(Cl)cc1						Activity (Histamine H4 receptor [4]): > 20%; EC50 (Histamine H4 receptor [5]): 7.78 µM
CC(C)(CN=C(c1ccccc1O)c1ccccc1O)c1c[nH]cn1			> 20	19		
